Results as given in paper PMC6010057, “Synthesis, carbonic anhydrase I and II inhibition studies of the 1,3,5-trisubstituted-pyrazolines” (Journal of Enzyme Inhibition and Medicinal Chemistry, 2016).

How the values were obtained:
hCA I = hCA I (Homo sapiens, UniProt P00915); test: biochemical
hCA II = hCA II (Homo sapiens, UniProt P00918); test: biochemical

Sequence of hCA I (P00915 whole entry): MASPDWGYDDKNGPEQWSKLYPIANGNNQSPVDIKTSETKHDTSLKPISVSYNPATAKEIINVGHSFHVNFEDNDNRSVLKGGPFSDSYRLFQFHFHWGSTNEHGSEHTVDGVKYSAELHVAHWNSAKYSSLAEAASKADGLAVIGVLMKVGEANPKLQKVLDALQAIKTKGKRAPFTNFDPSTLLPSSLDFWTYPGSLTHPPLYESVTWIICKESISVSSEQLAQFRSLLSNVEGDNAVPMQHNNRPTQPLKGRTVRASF

SMILES | IC50 (hCA I) [nM] | Ki (hCA I) [nM] | IC50 (hCA II) [nM] | Ki (hCA II) [nM]
NS(=O)(=O)c1ccc(N2N=C(c3ccccc3)CC2c2ccccc2)cc1 (stereo not shown) [Compound 9, 4-(3,5-Diphenyl-4,5-dihydro-1H-pyrazol-1-yl)benzenesulfonamide] | 555 | 506 ± 133 | 586 | 625 ± 168
COc1ccc(C2=NN(c3ccc(S(N)(=O)=O)cc3)C(c3ccccc3)C2)cc1 (stereo not shown) [Compound 11, 4-(3-(4-Methoxyphenyl)-5-phenyl-4,5-dihydro-1H-pyrazol-1-yl)benzenesulfonamide] | 484 | 533 ± 188 | 486 | 469 ± 63
NS(=O)(=O)c1ccc(N2N=C(c3ccc(F)cc3)CC2c2ccccc2)cc1 (stereo not shown) [Compound 13, 4-(3-(4-Fluorophenyl)-5-phenyl-4,5-dihydro-1H-pyrazol-1-yl)benzenesulfonamide] | 493 | 462 ± 134 | 536 | 587 ± 188
NS(=O)(=O)c1ccc(N2N=C(c3ccc(O)cc3)CC2c2ccccc2)cc1 (stereo not shown) [Compound 16, 4-(3-(4-Hydroxyphenyl)-5-phenyl-4,5-dihydro-1H-pyrazol-1-yl)benzenesulfonamide] | 528 | 472 ± 57.5 | 459 | 592 ± 134

Stronger by IC50 (hCA I), values ahead:

IC50 (hCA I) [nM] | Ki (hCA I) [nM] | IC50 (hCA II) [nM] | Ki (hCA II) [nM] | SMILES
403 | 378 ± 114 | 559 | 521 ± 132 | NS(=O)(=O)c1ccc(N2N=C(c3ccc(Cl)cc3)CC2c2ccccc2)cc1 (stereo not shown) [Compound 12, 4-(3-(4-Chlorophenyl)-5-phenyl-4,5-dihydro-1H-pyrazol-1-yl)benzenesulfonamide]
405 | 317 ± 9.6 | 470 | 412 ± 115 | NS(=O)(=O)c1ccc(N2N=C(c3ccc(Br)cc3)CC2c2ccccc2)cc1 (stereo not shown) [Compound 14, 4-(3-(4-Bromophenyl)-5-phenyl-4,5-dihydro-1H-pyrazol-1-yl)benzenesulfonamide]
416 | 326 ± 29.4 | 534 | 430 ± 87.3 | NS(=O)(=O)c1ccc(N2N=C(c3ccc([N+](=O)[O-])cc3)CC2c2ccccc2)cc1 (stereo not shown) [Compound 15, 4-(3-(4-Nitrophenyl)-5-phenyl-4,5-dihydro-1H-pyrazol-1-yl)benzenesulfonamide]
